Consider 14 compounds from PubChem BioAssay (NCI).

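Assay format: 96-well plates, 48-hour exposure. TGI: concentration producing complete growth inhibition.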 Where only a bound is given, the exact number is not on record here.

Test systems include CCRF-CEM leukemia; SNB-78 CNS; M19-MEL melanoma; DMS 114 small cell lung; UACC-62 melanoma; HL-60(TB) leukemia; NCI-H460 lung; DLD-1 colon; RPMI-8226 leukemia; DU-145 prostate; MDA-MB-231 breast; MDA-MB-435; NCI/ADR-RES ovarian; HOP-18 NSCLC.
Common to all, as to assay: NCI-60 cell line screen, 48 h

For `NC(=O)N1N=C2c3ccccc3CC[C@@H]2C1c1ccccc1` (stereo not given in full), the TGI with CCRF-CEM leukemia, in the experiment with SNB-78 CNS, with M19-MEL melanoma, with DMS 114 small cell lung, in the experiment with UACC-62 melanoma and in the experiment with HL-60(TB) leukemia was over 100 µM each time. Also, the TGI with NCI-H460 lung, in the experiment with DLD-1 colon and in the experiment with RPMI-8226 leukemia was over 100 µM in each case.

On to `O=C(NNC(=S)Nc1ccccc1)c1ccccc1Nc1ccccc1C(=O)NNC(=S)Nc1ccccc1`, for which the TGI is over 100 µM in the experiment on CCRF-CEM leukemia; over 100 µM with DU-145 prostate; 26.9 µM in the experiment on UACC-62 melanoma; 61.3 µM in the experiment with MDA-MB-231 breast; over 100 µM with HL-60(TB) leukemia; 49 µM in the experiment on NCI-H460 lung. Also, the TGI in the experiment with MDA-MB-435, in the experiment on RPMI-8226 leukemia and in the experiment on NCI/ADR-RES ovarian was over 100 µM each time.

As to `N#Cc1c(-c2ccco2)cc(-c2ccc(NCc3nc4ccccc4[nH]3)cc2)nc1N`, the TGI with CCRF-CEM leukemia is over 100 µM; with M19-MEL melanoma it was 63.4 µM; with HOP-18 NSCLC, 77.9 µM; in the experiment with UACC-62 melanoma, 45.1 µM; in the experiment on HL-60(TB) leukemia, 47.3 µM; in the experiment with NCI-H460 lung it was 43.3 µM. Also, the TGI in the experiment with DLD-1 colon is over 100 µM; with RPMI-8226 leukemia, 62 µM.

Consider `CC1OC(OC2C(O[C@H]3CC[C@@]4(C)[C@@H](CC[C@@H]5[C@@H]4CC[C@]4(C)[C@@H]6[C@H](C[C@@H]54)O[C@]4(CC[C@@H](C)CO4)[C@H]6C)C3)OC(CO)C(OC3OC(CO)C(O)C(OC4OCC(O)C(O)C4O)C3OC3OCC(O)C(O)C3O)C2O)C(O)C(O)C1O` (stereo not given in full), for which the TGI in the experiment with CCRF-CEM leukemia is 0.499 µM; in the experiment on DU-145 prostate, 2.73 µM; with UACC-62 melanoma, 1.77 µM; with MDA-MB-231 breast, 9.57 µM; with HL-60(TB) leukemia, 1.01 µM; in the experiment on NCI-H460 lung it was 2.23 µM. For the same compound, the TGI in the experiment with MDA-MB-435 stood at 2.74 µM; in the experiment on RPMI-8226 leukemia, 11.4 µM; in the experiment with NCI/ADR-RES ovarian it was 3.13 µM.

Take `CC(=O)C(=[N+]=[N-])C(=O)OC(C)(C)C#N`: the TGI in the experiment with CCRF-CEM leukemia, in the experiment with DU-145 prostate, with UACC-62 melanoma, with MDA-MB-231 breast, in the experiment with HL-60(TB) leukemia and in the experiment with NCI-H460 lung was over 10 µM each time. In addition, the TGI in the experiment with MDA-MB-435, in the experiment with RPMI-8226 leukemia and in the experiment with NCI/ADR-RES ovarian was over 10 µM in each case.

`COc1cccc(NC(=S)Nn2c(C)nc3ccccc3c2=O)c1`: the TGI in the experiment on CCRF-CEM leukemia, in the experiment on M19-MEL melanoma, in the experiment on HOP-18 NSCLC, in the experiment with DMS 114 small cell lung, in the experiment on UACC-62 melanoma and in the experiment with HL-60(TB) leukemia was over 100 µM throughout. Further, the TGI with NCI-H460 lung, with DLD-1 colon and in the experiment on RPMI-8226 leukemia was over 100 µM each time.

As for `S=C(N/N=C(/c1ccccc1)c1ccccn1)Nc1ccccc1Cl`, the TGI in the experiment with CCRF-CEM leukemia is over 38.1 µM; in the experiment with DU-145 prostate it was 17.8 µM; in the experiment on UACC-62 melanoma, 14.6 µM; in the experiment with MDA-MB-231 breast, 2.19 µM; in the experiment with HL-60(TB) leukemia it was 0.228 µM; in the experiment on NCI-H460 lung, 6.24 µM. Further, the TGI in the experiment with MDA-MB-435 is 8.77 µM; in the experiment with RPMI-8226 leukemia, over 7.31 µM; in the experiment on NCI/ADR-RES ovarian, 5.18 µM.

As for `COc1ccc(C(O)/C(=N\NC(N)=S)c2nc3ccc([N+](=O)[O-])cc3[nH]c2=O)cc1OC` (stereo not given), the TGI in the experiment with CCRF-CEM leukemia, in the experiment with M19-MEL melanoma, with HOP-18 NSCLC, with DMS 114 small cell lung, in the experiment on UACC-62 melanoma and in the experiment on HL-60(TB) leukemia was over 100 µM each time. In addition, the TGI in the experiment with NCI-H460 lung, in the experiment on DLD-1 colon and in the experiment on RPMI-8226 leukemia was over 100 µM throughout.

In the case of `Cc1ccc(S(=O)(=O)NN=C2CCCCCCCCCCC2)cc1`, the TGI in the experiment with CCRF-CEM leukemia, in the experiment on DU-145 prostate, with UACC-62 melanoma, in the experiment on MDA-MB-231 breast, with HL-60(TB) leukemia and in the experiment on NCI-H460 lung was over 100 µM throughout. In addition, the TGI with MDA-MB-435, with RPMI-8226 leukemia and in the experiment on NCI/ADR-RES ovarian was over 100 µM each time.

For `CSc1nc(-c2cc3c(c(SC)n2)CCCCC3)cc2c1CCCCC2`, the TGI in the experiment with CCRF-CEM leukemia, with DU-145 prostate, in the experiment on UACC-62 melanoma, in the experiment with MDA-MB-231 breast, in the experiment with HL-60(TB) leukemia and in the experiment with NCI-H460 lung was over 100 µM each time. Also, the TGI in the experiment with MDA-MB-435, in the experiment with RPMI-8226 leukemia and in the experiment with NCI/ADR-RES ovarian was over 100 µM in each case.

As to `COC(=O)C1(Cc2ccc3c(c2)CCC3)Cc2ccc3c(c2C1O)CCC3` (stereo not given), the TGI with CCRF-CEM leukemia is over 100 µM; in the experiment on DU-145 prostate, 46.4 µM; with UACC-62 melanoma, 32.9 µM; with MDA-MB-231 breast, 29.4 µM; in the experiment with HL-60(TB) leukemia it was over 100 µM; with NCI-H460 lung it was 54.4 µM. In addition, the TGI in the experiment on MDA-MB-435 was 27.5 µM; in the experiment with RPMI-8226 leukemia, 59.4 µM; in the experiment on NCI/ADR-RES ovarian, 35.9 µM.

In the case of `CN(C)CCNc1ccc2c(=O)n(CCN(C)C)c(=O)n3c4ccc([N+](=O)[O-])cc4c(=O)c1c23`, the TGI with CCRF-CEM leukemia is 0.381 µM; in the experiment on DU-145 prostate, 6.54 µM; with UACC-62 melanoma, 3.17 µM; with MDA-MB-231 breast, 2.21 µM; in the experiment with HL-60(TB) leukemia it was 0.417 µM; in the experiment on NCI-H460 lung it was 1.53 µM. Besides, the TGI in the experiment on MDA-MB-435 was 1.83 µM; with RPMI-8226 leukemia, 0.605 µM; in the experiment with NCI/ADR-RES ovarian, 2.1 µM.

For the compound `COc1ccc(-c2csc(=Nc3ccccc3)n2CC(O)c2ccc([N+](=O)[O-])cc2)cc1` (stereo not given), the TGI in the experiment on CCRF-CEM leukemia, in the experiment on DU-145 prostate, with UACC-62 melanoma, with MDA-MB-231 breast, in the experiment with HL-60(TB) leukemia and in the experiment on NCI-H460 lung was over 100 µM in each case. The TGI in the experiment on MDA-MB-435, in the experiment with RPMI-8226 leukemia and in the experiment with NCI/ADR-RES ovarian was over 100 µM each time.

As to `CC(C)(C)c1ccc(-c2nc3ccc([N+](=O)[O-])cc3c(=O)o2)cc1`, the TGI in the experiment with CCRF-CEM leukemia was 58.2 µM; in the experiment on DU-145 prostate, over 100 µM; with UACC-62 melanoma, 79.3 µM; in the experiment on MDA-MB-231 breast, 66 µM; in the experiment on HL-60(TB) leukemia it was 65.6 µM; in the experiment with NCI-H460 lung, over 100 µM. For the same compound, the TGI in the experiment on MDA-MB-435 was 77 µM; in the experiment on RPMI-8226 leukemia, over 100 µM; in the experiment on NCI/ADR-RES ovarian, 79.8 µM.
